Data on seven compounds can be found in patent publication US20260242359A1, “IRHOM2 INHIBITORS AND USES THEREOF” (NEW YORK SOCIETY FOR THE RELIEF OF THE RUPTURED AND …, priority 2023, published 2026).

The assay concerns PMA-induced release of endogenous HB-EGF from human peripheral blood mononuclear cells (PBMCs). The experiment in a line: Example 16: ELISA-based HB-EGF release assay, PMA-induced, PBMCs from healthy donor. The assay is classed as cell-based. Particulars: 10 μM final concentration, PMA 25 ng/ml, delta Buffer stimulated vs unstimulated = 100% inhibition; for inhibition at 10 µM: Homo sapiens, PBMC. Here is the method:
In the following study, ELISA-based HB-EGF release assays were performed to analyze the inhibitory effects of Compounds 1, 2, 3, 4, 5, and 7 on PMA-induced release of endogenous HB-EGF from primary human material obtained from healthy donor using peripheral blood mononuclear cells (PBMCs). The ELISA-based HB-EGF release assay that was used in this example is described below.
In brief, on day 1, Nunc black MaxiSorp® 96-well plates (Thermo Fisher Scientific, USA) were coated overnight with 100 μl per well of mouse anti-human HB-EGF capture antibody (provided as part of the DuoSet ELISA kit) at 2 μg/ml TBS at 4° C.
80,000 PBMCs from healthy donor (SciRhom GmbH, Germany) in 80 μl of normal growth medium were seeded in each well of Greiner CELLSTAR V-bottom 96-well plates (Greiner Bio-One, Germany) and pre-incubated with […] per well of standard growth medium supplemented with Batimastat (BB94, Abcam, UK) at 50 μM as positive control (for a final concentration of 10 μM in the resulting 100 μl sample volume), compounds of the invention at 50 μM (for a final concentration of 10 μM in the resulting 100 μl sample volume) and in case of Buffer stimulated and unstimulated controls with DMSO (Carl Roth, Germany) at 50 μM (for a final concentration of 10 μM in the resulting 100 μl sample volume) at 37° C., 5% CO2 for 30 minutes. Subsequently, cells (except those for unstimulated controls) were stimulated with 20 μl per well of PMA (Sigma-Aldrich, USA) at 150 ng/ml in growth medium for a final concentration of 25 ng/ml at 37° C., 5% CO2 for 22 hours.
On day 2, the capture antibody solution was removed and MaxiSorp® plates were blocked with 300 μl per well of TBS, 1% BSA at room temperature for 1-2 hours. Meanwhile, the 96-well plates were centrifuged to pellet cells. In parallel, blocking buffer was removed from the MaxiSorp® plates and plates were washed 4 times with 350 μl TBS-T (Carl Roth, Germany) per well on a 96-head plate washer (Tecan Group, Switzerland). To avoid drying-up, 30 μl TBS were added to each well of the MaxiSorp® plates immediately, followed by the transfer of 70 μl cell-free supernatant per sample. Additionally, 100 μl recombinant human HB-EGF protein (provided as part of the DuoSet ELISA kit) diluted in TBS at defined concentrations were added to the plate as standard references. Plates were incubated at room temperature for 2 hours. After 4 times washing with 350 μl TBS-T (Carl Roth, Germany) per well on a 96-head plate washer (Tecan Group, Switzerland) and careful removal of all buffer traces after the fourth cycle, 100 μl biotinylated goat anti-human HB-EGF detection antibody (provided as part of the DuoSet ELISA kit) at 50 ng/ml TBS were added per well and, protected from direct light, plates were incubated at room temperature for 2 hours.
After 4 times washing with 350 μl TBS-T (Carl Roth, Germany) per well on a 96-head plate washer (Tecan Group, Switzerland) and careful removal of all buffer traces after the fourth cycle, 100 μl streptavidin-AP (R&D Systems, USA) diluted 1:10,000 in TBS were added to each well and, again protected from direct light, plates were incubated at room temperature for 30 minutes. Following another round of 4 times washing with 350 μl TBS-T (Carl Roth, Germany) per well on a 96-head plate washer (Tecan Group, Switzerland) and careful removal of all buffer traces after the fourth cycle, 100 μl AttoPhos substrate solution (Promega, USA) per well was added for incubation in the dark at room temperature for 1 hour. Using an infinite M1000 (Tecan Group, Switzerland) microplate reader, the fluorescence of each well was collected at an excitation wavelength of 435 nm and an emission wavelength of 555 nm.
The delta between Buffer stimulated and Buffer unstimulated was defined 100% inhibition.

As usually defined, the inhibition is the change of the read-out against control, counted positive when it falls.

With `CNC(=O)[C@H](Cc1ccccc1)NC(=O)[C@H](CC(C)C)[C@H](CSc1cccs1)C(=O)NO` [Batimastat, reference compound], under “22 hours”, the “inhibition of PMA-induced release of HB-EGF from PBMCs from healthy donor” value is 107.6%. In addition, the inhibition at 10 µM (22 h) was determined as 98.5%.

As to `CCC(=O)NCCc1c(/C=C2/C(=O)NC(=O)N(c3ccc(C)cc3C)C2=O)[nH]c2ccccc12` [Compound 1], the inhibition at 10 µM (22 hours) was 101%.

Consider `CCOC(=O)c1ccc(Nc2nc3nonc3n3nnnc23)cc1` [Compound 2], for which, where the note is “22 h”, the inhibition at 10 µM came out at 100%.

Turning to `O=C(c1c(Cl)cccc1Cl)N1CCC(Cc2ccc(F)cc2)CC1` [Compound 3], where the note is “22 h”, the inhibition at 10 µM is 22.4%.

`Cc1c(C(=O)NCc2cccs2)sc(=O)n1Cc1ccccc1` [Compound 4]: the inhibition at 10 µM (22 h) worked out at 38.7%.

In the case of `Cc1c(C(=O)NCc2cccs2)sc(=O)n1Cc1ccccc1F` [Compound 5], the inhibition at 10 µM (22 h) was determined as 34%.

Consider `Cc1c(C(=O)NCc2ccco2)sc(=O)n1Cc1ccccc1F` [Compound 7], for which the inhibition at 10 µM (22 h) was 107%.
